From US20080318931A1, “Treatment of Disorders and Diseases of the Colon” (priority 2004, published 2008)
“Also recorded” adds a separate entry of the source.

How the values were obtained:
[1] = test system: splenocytes derived from treated mice; test: ConA/basal proliferation ratio of splenocytes from mice treated in vivo for 7 days; parameters: species or system mouse; details: paroxetine 7.5, clomipramine 15 mg/kg x3/week i.p., Con A 5 μM in vitro
Experimental: Paroxetine or clomipramine were administered at 7.5 and 15 mg/kg x3/week i.p, respectively. Splenocytes were derived from treated animals.
Each group represents the mean of a pool of 5 animals.

[2] = test system: ConA-induced mouse splenocytes; test: Con-A-induced mouse splenocyte proliferation/viability, alamar blue; assay type: cell-based; details: 48 hr
Experimental: (§1) Mouse splenocytes were isolated from C57b1 healthy female mice. Cells (10,000/well) were tested under basal and ConA stimulation. Cells were treated with vehicle, dexamethasone or antidepressants (2.5-10 μM). Viability was assessed 48 hr later using alamar blue staining. (Reagents were manufactured by Wildflower, Santa Fe, N. Mex., USA.) Alamar blue assay was performed as in Nociari et al (1998).
Effect of paroxetine, (SSRI) and clomipramine (TCA) as compared to dexamethasone on Con-A-induced splenocyte proliferation (alamar blue method), and splenocyte-induced secretion of TH1 cytokines TNF-α, IL2 and INFγ, 1×10^6 cells/well, was measured 48 hours after exposure to drugs (2.5-10 μM).
In particular, mouse splenocytes were isolated from C57BL healthy female mice. Cells (10,000/well) were then exposed to Con-A (5 μM) and treated with either the vehicle, with dexamethasone or with a drug (2.5-10 μM).
Cell viability was assessed 48 hr later using Alamar blue staining. The results are presented in FIG. 4, where each point is the graph represents the mean of 4 determinations. […]. The IC50 determined for the antidepressant drugs was in the range of 2.5-5.5 μM.
Cells were treated with vehicle, or the antidepressants (2.5-20 μM). Viability was assessed 48 hours later using alamar blue staining. (Each point is the mean+/−SEM of 4 determinations).

human PBMC = test: Viability of LPS-exposed human PBMC, alamar blue; assay type: cell-based; details: LPS 2 ug/well, 2.5-30 μM, 48 hours, both subjects
Experimental: Human PBMC were isolated from whole blood of 2 healthy volunteers (A and B subjects). Cells (2×10^6/ml) were exposed to LPS (2 ug/well) and treated with either the vehicle, or with paroxetine, sertraline, clomipramine and trifluoperazine (2.5-30 μM).

[3] = test system: Con-A activated splenocytes; details: 5 μM
Experimental: (§3) LPS (manufactured by Sigma St. Louis Mo., USA, cat no L2880) was administered at 100 μg/mouse×2, on day 7 and day 14).

Cox-2 = Cox-2 expression in human PHA activated lymphocytes, Western blot; assay type: cell-based; details: 5 μM, PHA 15 μM
Experimental: (§2) Total protein lysates from human lymphocyte culture were prepared by agitation with lysis buffer (20 mM Tris pH 7.5, 150 mM NaCl, 1 mM EDTA, 1% Nonidet P-40, 0.5% sodium deoxycholate, and 2 mM Na2VO4) for 1 h at 4° C. The proteins were cleared by centrifugation at 14,000×g for 20 min at 4° C. Protein concentration was determined using BCA kit (Pierce, Ill., USA). For Western blot analysis, 30 μg-protein from each sample were loaded in 7.5% SDS-PAGE. Electroblotted proteins were detected using specific anti COX-2 polyclonal antibody (Cayman chemical company, Michigan, USA) or an ti-Stat3 monoclonal antibody (Transduction Laboratories Lexington UK). Bound antibodies were visualized using chemiluminescence reaction.

Stat3 = Stat3 expression in human PHA activated lymphocytes, Western blot; assay type: cell-based; details: 5 μM, PHA 15 μM
Experimental: as §2

[4] = test system: mouse splenocytes (basal); test: Basal mouse splenocyte viability, alamar blue; assay type: cell-based; details: 2.5-10 μM, 48 hr
Experimental: as §1

[5] = test system: Human Colon carcinoma (HT29) cell-line; test: Viability of human colon carcinoma HT29 cells, alamar blue and neutral red; assay type: cell-based; details: 10-30 μM, FIG. 14
Experimental: Human Colon carcinoma (HT29) cell-line (ATCC USA) was maintained in RPMI medium supplemented with 10% fetal calf serum and penicillin (100 u/ml), streptomycin (100 mcg/ml), nystatin (12.5 u/ml), L-glutamine (2 mM). Confluent cultures were washed with phosphate-buffered saline (PBS), detached with trypsine (0.25%), centrifuged, and subcultured in 96-well microtiter test plates. Cells were exposed to vehicle or to psychotropic drugs. Cell viability was measured 24 hours later using the alamar blue and neutral red methods. Results were expressed as % of controls (vehicle treated cells). Each sample is the Mean+/−[…] of 4 determinations.

Cyclooxygenase-2 (Cox-2) = test: Cox-2 expression in ConA stimulated mouse splenocytes, Western blot; assay type: cell-based; details: 5 μM, normalized to actin
Experimental: Determination was performed using Western blot analysis and quantitative dencitometry of blot.
For each sample 2×10^7 cells were used. Cells were lysed, and equal amounts of protein was fractionated on polyacrylamide gel and then transferred to PVDF membrane. The amount of the protein was detected by immuno-blotting with […] anti-Cox-2 anti body (Murine anti COX2 Polyclonal Cat. 160126, Ann Arbor, Mich., USA. 2nd antibody conjugated to horseradish peroxidase was used and visualized with chemiluminescent Kit (Pierce, Rockford, Ill., USA) on film. Quantification of blot was performed using a densitometry apparatus (VersaDoc™ imaging system, BioRad, USA) and levels were normalized to actin.

[6] = test system: Con-A activated splenocytes; test: cells; details: Mus musculus, Splenocyte, read-out: inhibition of viability, splenocytes from naïve animals
Experimental: as §3

Fc1ccc([C@@H]2CCNC[C@H]2COc2ccc3c(c2)OCO3)cc1 [paroxetine]
capacity to respond to Con-A (ratio ConA/basal) vs vehicle treated mice [1]: not
ConA (mitogen)-induced splenocyte proliferation ([2]; 2.5-10 μM, alamar blue): dose dependent decrease; also recorded: dose-dependent decrease
cell viability compared to dexamethasone ([2]; Con-A 5 μM, drug 2.5-10 μM): decreased cell viability to the same extent as compared to dexamethasone
order of potency, decrease in cell viability (human PBMC): sertraline>paroxetine>trifluoperazine>/=clomipramine
response of splenocytes from LPS mice treated in vivo with sertraline ([3]; LPS mice + sertraline 5 mg/kg×3/week two weeks): more responsive
response of splenocytes from LPS mice ([3]; LPS-treated mice): in a manner similar to the naive animals
PHA-induced increase in Cox-2 expression (Cox-2): antagonized
PHA-induced increase in Stat3 expression (Stat3): antagonized
basal splenocyte proliferation [4]: dose dependent decrease
inhibition of cell viability [5]: 64%
reduction of Cox-2 expression (Cyclooxygenase-2 (Cox-2)): 22.2%
cytotoxicity at 5 µM [6]: 10%
